Measured values reported in patent publication US20110189306A1, “COMPOUNDS, COMPOSITIONS AND TREATMENTS FOR V-ATPase RELATED DISEASES” (priority 2010, published 2011).
“Also recorded” adds a separate entry of the source.

Columns and labels:
[1] = test system: mouse bone marrow-derived macrophages (BMM); assay: TRAP staining of osteoclasts RANKL-differentiated from bone marrow-derived macrophages; type: cell-based; conditions: 1.25 μM
Method: Panels show: a, control, vehicle only; b and c are duplicates with 1.25 μM KM91104.

[2] = test system: undifferentiated RAW 264.7 cells; assay: MTT assay to determine cytotoxicity; type: cell-based, mouse
Method: The concentration range of compound tested was from 0.3 to 40 μM, as indicated (n=3). Yellow MTT is converted to purple formazan by mitochondrial reductases. Formazan is measured spectrophotometrically to deduce metabolic activity of test cells. Reduced metabolic activity indicates metabolic dysfunction due to cytotoxicity. In this case, significant cytotoxicity is not seen up to 2.5 μM KM91104 concentration. C indicates control, vehicle only added. The test cell line was undifferentiated RAW 264.7 cells.

[3] = test system: RAW 264.7 cells; assay: TRAP staining analysis (qualitative and cell counts) of RANKL-mediated differentiation and fusion; type: cell-based, mouse; conditions: for effect on osteoclast formation, differentiation and fusion (in words): at 1.25 μM / at a concentration efficacious in inhibiting acid secretion, where stated
Method: The concentration range of compound tested was from 0.6 to 40 μM, as follows (in μM): a, control, vehicle only; b, 0.63; c, 1.25; d, 2.5; e, 5.0; f, 10; g, 20; h, 40. […] The latter observation is consistent with the conclusion of the protein assay of FIG. 7.
Plotted are cell counts for multinucleated cells with greater than 3 nuclei after treatment with compound KM91104. This figure confirms the qualitative conclusion of FIG. 10 that there is a drop off in the number of larger osteoclasts above 1.25 μM concentration.

[4] = test system: undifferentiated RAW 264.7 cells; assay: Protein assay on cell cultures (effect on cellular growth); type: cell-based, mouse; conditions: for effect on cell growth, metabolic activity, cytotoxicity (in words): at 1.25 μM / at a concentration efficacious in inhibiting acid secretion; for concentration that did not significantly affect cell growth / total protein: undifferentiated RAW 264.7 cells, 0.3 to 40 μM tested, n=3
Method: Concentration range of compound tested was from 0.3 to 40 μM, as indicated (n=3, error bars are +/−SD). […] C indicates control, vehicle only added. The test cell line was undifferentiated RAW 264.7 cells.

[5] = test system: RANKL-differentiated RAW 264.7 cells; assay: Hydroxyapatite resorption on Corning Osteo-Assay Surface plates; type: cell-based, mouse; conditions: for acid secretion of osteoclasts (in words): murine osteoclasts
Method: RAW 264.7 cells (American Type Culture Collection (ATCC), cat. no. TIB-71) were differentiated in the presence of 100 ng/ml RANKL on synthetic mineralized surfaces of Corning Osteo-Assay Surface 96-well plates (Corning Inc. Life Sciences, Lowell, Mass.; cat. no. 3988XX1). Cells were cultured for 5 days in 200 μl α-MEM (Grand Island Biological Co. (GIBCO)/Invitrogen Corp. cat. no. 12571-063) with 10% fetal bovine serum (FBS; (GIBCO/Invitrogen) cat. no. 10437-028, Lot 1233072). Exposure of cells to RANKL and KM91104 was continuous throughout the experiment. The complete medium was changed on the third day. On day 5, cells were removed using 3% sodium hypochlorite solution. Plates were air dried and then imaged using digital brightfield photomicrography (Leica DM IRE2 with OpenLab software, Leica Microsystems, Richmond Hill, Canada). Image analysis was carried out with NIH ImageJ software (National Institutes of Health, Bethesda, Md.). Concentrations of KM91104 (μM) in medium were as follows: a, control, vehicle only; b, 0.63; c, 1.25; d, 2.5; e, 5.0; f, 10; g, 20; h, 40.
The concentration range of KM91104 tested was from 0.3 to 40 μM, as indicated (see Materials and Methods). C indicates control, vehicle only added. […] Error bars indicate +/−SD (n=3).
Bone resorption (FIGS. 13 and 14) was assayed using the following method. RAW 264.7 cells were differentiated on synthetic mineralized surfaces in 96 well Corning Osteo Assay Surface plates with 100 ng/ml RANK ligand. Wells were simultaneously treated with the lead compound. Cells were cultured for 5 days in […] of α-MEM. The complete medium was changed on the third day. On day 5, cells were removed using 50% bleach solution. Plates were dried and imaged using digital brightfield photomicrograpy. Image analysis was carried out using ImageJ.

[6] = test system: RAW 264.7 cells; assay: Total solubilized TRAP assay of RANKL-mediated differentiation; type: cell-based, mouse; conditions: 3 days of growth with RANKL, 0.3 to 40 μM tested
Method: The concentration range of compound tested was from 0.3 to 40 μM, as indicated (see Materials and Methods). C indicates control, vehicle only added. TRAP is a marker for osteoclast differentiation and will convert colorless p-nitrophenylphosphate to yellow nitrophenol under acidic conditions. The yellow color is quantified spectrophotometrically and indicates degree of differentiation after 3 days of growth with RANKL.

[7] = molecular target: TRX-NTa3 fusion protein (TRX-G2-NTa3(1-393)), N-terminal domain of mouse V-ATPase subunit a3 fused to thioredoxin (mouse); assay: ELISA saturation curve, plate coated with TRX-NTa3, GST-B1 as analyte; apparent Kd from half-maximal binding
[8] = molecular target: TRX-NTa3 fusion protein (TRX-G2-NTa3(1-393)), N-terminal domain of mouse V-ATPase subunit a3 fused to thioredoxin (mouse); assay: ELISA saturation curve, plate coated with TRX-NTa3, GST-B2 as analyte; apparent Kd from half-maximal binding
[9] = molecular target: TRX-NTa3 fusion protein (TRX-G2-NTa3(1-393)), N-terminal domain of mouse V-ATPase subunit a3 fused to thioredoxin (mouse); assay: ELISA, plate coated with TRX-NTa3, GST-CTB2 as analyte; apparent Kd
[10] = molecular target: TRX-NTa3 fusion protein (TRX-G2-NTa3(1-393)), N-terminal domain of mouse V-ATPase subunit a3 fused to thioredoxin (mouse); assay: ELISA, plate coated with TRX-NTa3, GST-NTB2 as analyte; apparent Kd
[11] = molecular target: TRX-NTa3 fusion protein (TRX-G2-NTa3(1-393)), N-terminal domain of mouse V-ATPase subunit a3 fused to thioredoxin (mouse); assay: ELISA, plate coated with TRX-NTa3, GST-NTB2 against GST-B2(GH)

## O=C(N/N=C/c1ccccc1O)c1ccc(O)c(O)c1 [KM91104, 3,4-dihydroxy-N′-(2-hydroxybenzylidene)benzohydrazide]
[1]
  formation / maturation of large BMM-derived osteoclasts: does not significantly affect the formation of large osteoclasts
[1]; listed as lead compound
  formation / maturation of large BMM-derived osteoclasts: does not affect BMM derived osteoclast maturation
[2]; murine RAW264.7 cells
  toxicity (in words): low toxicity
[2]; undifferentiated RAW 264.7 cells, 0.3 to 40 μM tested, n=3
  concentration up to which significant cytotoxicity is not seen (MTT): up to 2.5 μM
[3]; RANKL-differentiated RAW 264.7, 0.6 to 40 μM tested
  concentration above which osteoclast size / number of larger osteoclasts (>3 nuclei) is reduced (fusion impaired): above 1.25 μM
[3]; all concentrations, 0.63 to 40 μM
  TRAP staining of cells: essentially all cells stain for TRAP
[3]
  effect on osteoclast formation, differentiation and fusion (in words): does not affect osteoclast differentiation or fusion to form large osteoclasts
[3]; listed as lead compound
  effect on osteoclast formation, differentiation and fusion (in words): limited effect on their ability to differentiate or undergo fusion
[3]; listed as the compound
  effect on osteoclast formation, differentiation and fusion (in words): little effect on osteoclast formation and differentiation
[3]; highest concentration (40 μM)
  cell density: reduction of cell density
[3]; summary of FIGS. 10 and 11
  concentration that does not affect osteoclast fusion: < 5 µM
[4]
  effect on cell growth, metabolic activity, cytotoxicity (in words): does not affect cell growth or cause cytotoxicity
  concentration that did not significantly affect cell growth / total protein: up to 20 μM
[4]; listed as lead compound
  effect on cell growth, metabolic activity, cytotoxicity (in words): no discernable effect on growth or metabolic activity
  concentration that did not significantly affect cell growth / total protein: < 20 µM
[5]; Mus musculus, RAW264.7, 120 h, 5 days, continuous exposure to RANKL and compound, image analysis of resorption areas, n=3, read-out: concentration for approximately half-maximal inhibition of resorption
  IC50: ~1250 nM
[5]; in vitro, synthetic mineralized surface, listed as lead compound
  effect on resorption (in words): inhibited resorption without affecting osteoclast formation; also recorded: prevents bone resorption in vitro
[5]; lowest concentration tested (range 0.3 to 40 μM)
  reduction in resorption: Highly significant reduction in resorption
[5]; listed as lead compound
  acid secretion of osteoclasts (in words): inhibits acid secretion
[5]; listed as the compound
  acid secretion of osteoclasts (in words): significantly reduced acid secretion
[6]
  concentration up to which differentiation / mature osteoclast formation is not appreciably affected (TRAP): up to 20 μM
[6]; listed as lead compound
  concentration up to which differentiation / mature osteoclast formation is not appreciably affected (TRAP): < 20 µM

## GST-B1(GH) fusion protein (GST-G2-B1(1-513)-G2H6G2), full length mouse V-ATPase subunit B1 fused to glutathione-S-transferase (from UniProt Q91YH6)
[7]
  Kd: 2.3 nM

## GST-B2(GH) fusion protein (GST-G2-B2(1-511)-G2H6G2), full length mouse V-ATPase subunit B2 fused to glutathione-S-transferase
[8]
  Kd: 2.4 nM

## GST-CTB2 fusion protein (GST-G2-B2(148-511)), C-terminal domain of mouse V-ATPase subunit B2 fused to glutathione-S-transferase
[9]
  Kd: 4.1 nM

## GST-NTB2 fusion protein (GST-G2-B2(1-112)), N-terminal domain of mouse V-ATPase subunit B2 fused to glutathione-S-transferase
[10]
  Kd: 230 nM
[11]
  fold reduction of binding against the full-length B2 subunit: 60 fold
